Laboratory results: the supplement of paper PMC10307832

Columns and labels:
Experiment in all cases: relative viability (nuclei count vs DMSO), 5 days (fraction); higher = more cells survive
[1] = compound: CN[C@@H]1C[C@H]2O[C@@](C)([C@@H]1OC)n1c3ccccc3c3c4c(c5c6ccccc6n2c5c31)C(=O)NC4 [Staurosporine] + CC(=O)Nc1cccc(-n2c(=O)n(C3CC3)c(=O)c3c(Nc4ccc(I)cc4F)n(C)c(=O)c(C)c32)c1 [Trametinib] (partner 0.02 µM)
Procedure, shortened: (§1)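 Lung cancer cell lines in 1536-well plates got either a single drug or a fixed anchor-drug dose together with five library-drug doses (not always all listed) in √10 steps, by pin tool, on the day after seeding. Nuclei were counted after 5 days, and relative viability is the treated-to-vehicle ratio of nuclei counts. Values are medians of duplicate plates.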

[2] = compound: CN[C@@H]1C[C@H]2O[C@@](C)([C@@H]1OC)n1c3ccccc3c3c4c(c5c6ccccc6n2c5c31)C(=O)NC4 [Staurosporine] + Cc1nc(Nc2ncc(C(=O)Nc3c(C)cccc3Cl)s2)cc(N2CCN(CCO)CC2)n1 [Dasatinib] (partner 0.075 µM)
Procedure, shortened: as §1

[3] = compound: CN[C@@H]1C[C@H]2O[C@@](C)([C@@H]1OC)n1c3ccccc3c3c4c(c5c6ccccc6n2c5c31)C(=O)NC4 [Staurosporine] + CS(=O)(=O)CCNCc1ccc(-c2ccc3ncnc(Nc4ccc(OCc5cccc(F)c5)c(Cl)c4)c3c2)o1 [Lapatinib] (partner 2 µM)
Procedure, shortened: as §1

Sulindac + Lapatinib = compound: CC1=C(CC(=O)O)c2cc(F)ccc2/C1=C\c1ccc([S+](C)[O-])cc1 [Sulindac] + CS(=O)(=O)CCNCc1ccc(-c2ccc3ncnc(Nc4ccc(OCc5cccc(F)c5)c(Cl)c4)c3c2)o1 [Lapatinib] (partner 2 µM)
Procedure, shortened: as §1

Cell Line	relative viability ([1]; first compound 0.005 µM)	relative viability ([1]; first compound 0.01581 µM)	relative viability ([1]; first compound 0.05 µM)	relative viability ([1]; first compound 0.1581 µM)	relative viability ([1]; first compound 0.5 µM)	relative viability ([2]; first compound 0.005 µM)	relative viability ([2]; first compound 0.05 µM)	relative viability ([2]; first compound 0.1581 µM)	relative viability ([2]; first compound 0.5 µM)	relative viability ([3]; first compound 0.005 µM)	relative viability ([3]; first compound 0.05 µM)	relative viability ([3]; first compound 0.1581 µM)	relative viability ([3]; first compound 0.5 µM)	relative viability (Sulindac + Lapatinib; first compound 0.08 µM)	relative viability (Sulindac + Lapatinib; first compound 0.253 µM)	relative viability (Sulindac + Lapatinib; first compound 0.8 µM)	relative viability (Sulindac + Lapatinib; first compound 2.53 µM)	relative viability (Sulindac + Lapatinib; first compound 8 µM)	relative viability ([2]; first compound 0.01581 µM)	relative viability ([3]; first compound 0.01581 µM)
NCI-H522	0.667	0.775	0.627	0.623	0.59	1.08	0.743	0.497	0.527	–	–	–	–	–	–	–	–	–	–	–
NCI-H1944	0.373	0.331	0.356	0.252	0.195	0.212	0.203	0.172	0.134	0.849	0.566	0.435	0.304	0.882	0.906	0.696	0.842	0.885	0.271	–
PC-14	0.483	0.064	0.0553	0.0467	0.0475	0.0423	0.0229	0.0364	0.0239	0.293	0.0956	0.0886	0.0786	0.349	0.379	0.315	0.276	0.311	0.0358	0.247
NCI-H1650	0.501	0.364	0.187	0.112	0.0438	0.24	0.166	0.127	0.119	0.575	0.336	0.151	0.117	1.01	0.775	0.625	0.824	0.944	0.225	0.165
HCC-827	0.625	0.641	0.357	0.313	0.231	0.391	0.372	0.319	0.305	0.223	0.182	0.125	0.163	0.247	0.183	0.192	0.181	0.184	0.423	0.186
HCC-366	0.242	–	0.0839	0.0291	0.0289	0.981	0.22	0.0316	0.022	1.22	0.278	0.0407	0.0187	1.19	1.13	0.765	1.06	1.49	–	–
HARA	0.365	0.401	0.2	0.132	0.118	0.289	0.127	0.145	0.0757	0.485	0.308	0.118	0.0844	0.989	0.835	–	0.858	0.893	–	0.327
NCI-H441	0.373	0.186	0.168	0.133	0.0933	0.705	0.572	0.163	0.082	–	–	–	–	–	–	–	–	–	0.326	–
LXF-289	0.741	0.409	0.412	0.274	0.237	0.119	0.112	0.0474	0.0343	0.725	0.389	0.109	0.0903	0.956	0.972	0.87	0.919	0.941	0.068	–
SK-LU-1	0.253	0.15	0.172	0.187	0.12	0.183	–	0.102	0.1	0.611	0.153	0.162	0.16	0.981	0.918	–	0.839	0.9	–	0.266
CAL-12T	0.19	0.145	0.0965	0.126	0.083	0.14	0.0772	0.107	0.0737	0.356	0.214	0.192	0.194	0.697	0.64	0.583	0.545	0.806	0.0881	0.198
COR-L 105	0.427	0.357	0.274	0.234	0.237	0.281	0.158	0.155	0.157	0.354	0.247	0.243	0.218	0.348	0.34	0.408	0.324	0.412	–	0.247
NCI-H2405	0.355	0.161	0.148	0.0927	0.0684	0.111	0.114	0.0659	0.0751	0.395	0.113	0.0819	0.0797	1.24	1.11	0.969	1.02	1.39	0.11	0.148
NCI-H2228	0.332	0.089	0.169	0.0671	0.0687	0.328	0.232	0.069	0.0624	0.88	0.346	0.137	0.115	1.4	1.3	0.575	1	0.917	0.245	0.49
PC-3 [JPC-3]	0.704	0.543	0.453	0.391	0.332	–	0.375	0.235	0.204	0.46	0.429	0.287	0.307	0.476	0.453	0.422	0.457	0.449	0.424	–
SW 1573	0.137	0.0903	0.055	0.047	0.033	0.129	0.0863	0.0538	0.0496	1.01	0.417	0.355	0.186	1.11	1.3	1.02	1.1	1.28	0.116	1.07
A549	–	–	–	–	–	–	–	–	–	0.823	0.499	0.0558	0.0481	1.12	0.975	0.995	1.04	1.22	–	0.715
NCI-H1648	0.586	0.299	0.0693	0.25	0.265	–	–	–	–	–	–	–	–	–	–	–	–	–	–	–
NCI-H1623	–	–	–	–	–	0.635	0.651	0.553	0.41	–	–	–	–	–	–	–	–	–	0.425	–
NCI-H1666	0.785	0.573	0.635	0.513	0.456	0.602	0.484	0.261	0.196	0.573	0.425	0.267	0.208	–	0.738	0.491	0.696	0.753	0.419	0.45

Cell Line	relative viability ([1]; first compound 0.005 µM)	relative viability ([1]; first compound 0.01581 µM)	relative viability ([1]; first compound 0.05 µM)	relative viability ([1]; first compound 0.1581 µM)	relative viability ([1]; first compound 0.5 µM)	relative viability ([2]; first compound 0.005 µM)	relative viability ([2]; first compound 0.05 µM)	relative viability ([2]; first compound 0.1581 µM)	relative viability ([2]; first compound 0.5 µM)	relative viability ([3]; first compound 0.005 µM)	relative viability ([3]; first compound 0.05 µM)	relative viability ([3]; first compound 0.1581 µM)	relative viability ([3]; first compound 0.5 µM)	relative viability (Sulindac + Lapatinib; first compound 0.08 µM)	relative viability (Sulindac + Lapatinib; first compound 0.253 µM)	relative viability (Sulindac + Lapatinib; first compound 0.8 µM)	relative viability (Sulindac + Lapatinib; first compound 2.53 µM)	relative viability (Sulindac + Lapatinib; first compound 8 µM)	relative viability ([2]; first compound 0.01581 µM)	relative viability ([3]; first compound 0.01581 µM)
NCI-H2087	0.167	0.142	0.0865	0.0713	0.0829	0.701	0.311	0.0727	0.0691	0.755	0.427	0.206	0.105	1.28	1.04	1.27	1.08	1.22	0.431	0.548
NCI-H596	0.753	0.494	0.275	0.184	0.173	0.7	0.276	0.226	0.183	1.08	0.419	0.181	0.157	1.02	0.983	1.01	0.973	1.21	0.467	0.749
Calu-6	–	–	–	–	–	–	–	–	–	0.87	0.277	0.136	0.085	1.29	1.04	1.09	1.25	1.3	–	0.51
LCLC-103H	0.685	0.472	0.445	0.331	0.332	0.307	0.113	0.134	0.103	–	–	–	–	–	–	–	–	–	0.108	–
HCC-15	0.305	–	0.192	0.192	0.165	0.494	0.229	0.11	0.0769	0.892	0.595	0.365	0.151	1.06	0.87	0.763	0.801	0.914	–	–
H3255	0.48	0.321	0.236	0.197	0.141	0.271	0.255	0.19	0.248	0.138	0.124	0.142	0.137	0.206	0.217	0.42	0.21	0.276	0.247	0.0852
NCI-H1915	0.252	0.139	0.0978	0.0599	0.0612	0.212	0.204	0.0847	0.0869	1.05	0.584	0.272	0.192	1.24	1.09	0.842	0.913	1.1	0.0927	–
NCI-H1563	–	–	–	–	–	0.43	0.411	0.247	0.433	0.71	0.594	0.539	0.472	0.992	0.901	0.884	0.879	0.933	0.434	0.541
NCI-H650	1.07	0.383	0.27	0.222	0.151	0.284	0.271	0.229	0.223	0.503	0.286	0.245	0.184	1.08	0.977	0.598	0.767	1.07	0.264	0.393
NCI-H2126	0.592	0.373	0.375	0.339	0.345	0.501	0.301	0.257	0.222	0.805	0.505	0.336	0.356	0.793	0.722	0.758	0.773	0.861	0.275	0.571
NCI-H838	0.174	0.145	0.208	0.0937	0.0589	0.267	0.225	0.177	0.178	0.25	0.211	0.134	0.103	1.21	1.02	0.638	0.972	1.03	0.203	0.164
NCI-H2342	0.948	0.675	0.499	0.417	0.363	0.297	0.26	0.234	0.27	–	–	–	–	–	–	–	–	–	0.243	–
HCC-44	1.04	–	0.444	–	0.322	–	–	–	–	0.956	0.208	0.0947	0.0895	1.14	1.05	0.919	1.05	1.15	–	–
NCI-H1299	–	–	–	–	–	–	–	–	–	0.985	0.326	0.201	0.171	1.06	0.927	0.96	0.942	1.06	–	0.414
ChaGo-K-1	0.911	–	0.796	0.579	0.455	0.621	0.475	0.147	0.128	–	–	–	–	–	–	–	–	–	0.491	–
SW 900	0.494	0.366	0.444	0.128	0.164	0.473	0.21	0.191	0.158	–	–	–	–	–	–	–	–	–	0.185	–
NCI-H1703	–	–	–	–	–	–	–	–	–	0.45	0.245	0.172	0.151	1.37	1.37	0.97	1.25	1.08	–	0.313
EBC-1	–	–	–	–	–	–	–	–	–	0.187	0.189	0.122	0.127	0.213	0.211	–	0.237	0.218	–	0.177
IA-LM	–	–	–	–	–	–	–	–	–	0.194	0.158	0.208	0.074	0.724	0.8	0.68	0.782	0.798	–	0.194
ABC-1	–	–	–	–	–	0.341	0.167	0.109	0.139	0.953	0.608	0.339	0.502	–	1.23	1.13	1.28	1.24	0.193	0.799
